Results: publication PMC6069857, “Effects of novel HDAC inhibitors on urothelial carcinoma cells” (Clinical Epigenetics, 2018)

Experiments:
HDAC11 = HDAC11 (Homo sapiens, UniProt Q96DB2); assay: In vitro fluorescence-based HDAC inhibition assay (Reaction Biology); settings: read-out: IC50 HDAC11; experiment performed once
[1] = test system: UCCs VM-CUB1, UM-UC-3, and 639-V; assay: Western blot of cleaved PARP; format: cell-based, human; settings: 19i 2 μM, 48 h; especially in 639-V
Experimental: Total protein extraction, purification of histones, and Western blot analysis were performed as previously described. Briefly, cells were incubated for 30 min on ice in RIPA-buffer (150 mM NaCl, 1% Triton X-100, 0.5% desoxycholate, 1% Nonidet P-40, 0.1% SDS, 1 mM EDTA, 50 mM TRIS (pH 7.6)) containing 10 μl/ml protease inhibitor cocktail (#P-8340, Sigma Aldrich, St. Louis, MO). Histones were extracted for detection of histone H3 and H4 acetylation by a modified published protocol employing sulfuric acid extraction and TCA-precipitation. Concentrations of total protein and histones were determined by BCA protein assay (Thermo Fisher Scientific, Carlsbad, CA). Subsequently, total cell proteins (15 μg) or extracted histones (2 μg) were separated by SDS-PAGE (total proteins 10–12% gels, histones 15% gels), transferred to PVDF membranes (Merck Millipore, Berlin, Germany), and were incubated with primary antibodies (at RT for 1 h or 4 °C overnight, see Additional file 3: Table S2) following blocking with 5% non-fat milk or BSA (bovine serum albumin) in TBST (150 mM NaCl, 10 mM TRIS, pH 7.4 and 0.1% Tween-20). […]

HDAC10 = HDAC10 (Homo sapiens, UniProt Q969S8); assay: In vitro fluorescence-based HDAC inhibition assay (Reaction Biology); settings: read-out: IC50 HDAC10; experiment performed once
HDAC6 = HDAC6 (Homo sapiens, UniProt Q9UBN7); assay: as above; settings: read-out: IC50 HDAC6; experiment performed once
UC cells = assay: Clonogenicity assay with Giemsa staining; format: cell-based, human; settings: 2 μM 19i for 48 h, replated
Experimental: Then, depending on the cell line, 500–1000 cells were seeded in 6-cm plates, and 10 to 15 days later, colonies were washed with PBS, fixed in methanol, and stained with Giemsa (Merck Millipore, Darmstadt, Germany).

UCCs = assay: Western blot of acetylated α-tubulin and histones H3/H4; format: cell-based, human; settings: 48 h, 19i 1 or 2 μM
Experimental: Total protein extraction, purification of histones, and Western blot analysis were performed as previously described. Briefly, cells were incubated for 30 min on ice in RIPA-buffer (150 mM NaCl, 1% Triton X-100, 0.5% desoxycholate, 1% Nonidet P-40, 0.1% SDS, 1 mM EDTA, 50 mM TRIS (pH 7.6)) containing 10 μl/ml protease inhibitor cocktail (#P-8340, Sigma Aldrich, St. Louis, MO). Histones were extracted for detection of histone H3 and H4 acetylation by a modified published protocol employing sulfuric acid extraction and TCA-precipitation. Concentrations of total protein and histones were determined by BCA protein assay (Thermo Fisher Scientific, Carlsbad, CA). Subsequently, total cell proteins (15 μg) or extracted histones (2 μg) were separated by SDS-PAGE (total proteins 10–12% gels, histones 15% gels), transferred to PVDF membranes (Merck Millipore, Berlin, Germany), and were incubated with primary antibodies (at RT for 1 h or 4 °C overnight, see Additional file 3: Table S2) following blocking with 5% non-fat milk or BSA (bovine serum albumin) in TBST (150 mM NaCl, 10 mM TRIS, pH 7.4 and 0.1% Tween-20). For signal detection, membranes were incubated with a suitable horseradish peroxidase-conjugated secondary antibody (see Additional file 2: Table S1) at RT for 1 h and signals were visualized by SuperSignal™ West Femto (Thermo Fisher Scientific, Carlsbad, CA) and WesternBright Quantum kit (Biozym, Hessisch Oldendorf, Germany).

[2] = test system: three UCCs (VM-CUB1, UM-UC-3, 639-V); assay: High-content analysis-based fluorescent live/dead assay, three UCCs together; format: cell-based, human; settings: HCA live/dead assay, 72 h
Experimental: Live and dead cells were assayed by high-content analysis (HCA). […] After 72 h of treatment, cells were stained with a mixture of Hoechst 33342 (Sigma Aldrich, St. Louis, MO), calcein AM (Merck Millipore, Germany), and propidium iodide (Santa Cruz Biotechnology, Heidelberg) for cell nuclei, live and dead cells. The staining solution was replaced by PBS after 20 min. Images were acquired using ArrayScan XTI Live High Content Platform (Thermo Fisher Scientific Inc., USA) using excitation filters of 386, 485, and 560 nm for Hoechst 33342, calcein AM, and propidium iodide, respectively. The results were analyzed using HCS Studio Cellomics Scan (Thermo Fisher Scientific Inc., USA).

HDAC8 = HDAC8 (Homo sapiens, UniProt Q9BY41); assay: In vitro fluorescence-based HDAC inhibition assay (Reaction Biology); settings: read-out: IC50 HDAC8; experiment performed once
VM-CUB1-LV = assay: MTT viability assay (CC50); format: cell-based, human; settings: VM-CUB1-LV (empty vector), 72 h
Experimental: (§1) HDAC4 cDNA from the pcDNA-HDAC4-FLAG plasmid kindly provided by Tso-Pang Yao (Addgene plasmid # 30485) was cloned into the lentiviral vector puc2CL12IPwo using standard techniques, thereby creating the vector puc2CL12IPwo-HDAC4-FLAG (Additional file 1: Figure S1). Integrity of the HDAC4 coding sequence was verified by sequencing. Lentivirus production and cell transduction were performed as previously described. In brief, to produce replication-deficient lentiviruses, HEK-293T cells were transfected with helper plasmid expression construct (pCD/NL-BH [35]), envelope vector (pczVSV-G [36]), and the vector plasmids puc2CL12IPwo or puc2CL12IPwo-HDAC4-FLAG. Viral particles were harvested 48 h after transfection and used to transduce VM-CUB1 and UM-UC-3 cells using 8 μg/ml polybrene (Sigma Aldrich, St. Louis, MO). Twenty-four hours after transduction, the supernatant containing viral particles was removed and the transduced cells were selected with 4 (VM-CUB1) or 1 (UM-UC-3) μg/ml puromycin (Invitrogen, Carlsbad, CA) for 7 days. Stable overexpression of HDAC4 was confirmed by Western blot analysis of cells from several passages.
(§2) For the determination of cellular mean cytotoxic concentration (CC50), UCCs, non-malignant control cells, and HDAC4-overexpressing clones were seeded in a 96-well format and treated once with a range of defined concentrations of the HDAC inhibitors. After 72 h, viability was quantified by NAD(P)H-dependent 3-(4,5-dimethylthiazol-2-yl)-2,5-diphenyltetrazolium bromide dye reduction assay (MTT, Sigma Aldrich, St. Louis, MO). CC50 values were estimated from three independent experiments by non-linear regression analysis (four-parameter logistic equation) using Prism 4.0 (Graph Pad) or Origin 8.0 (Origin Lab, Northhampton, GB). For time-dependent proliferation experiments, viability of untreated or inhibitor-treated cells was measured after 24, 48, and 72 h.

VM-CUB1-HDAC4 = assay: MTT viability assay (CC50); format: cell-based, human; settings: VM-CUB-HDAC4 (HDAC4-overexpressing), 72 h
Experimental: as §1, §2

UM-UC-3-HDAC4 = assay: MTT viability assay (CC50); format: cell-based, human; settings: UM-UC-3-HDAC4 (HDAC4-overexpressing), 72 h
Experimental: as §1, §2

UM-UC-3-LV = assay: MTT viability assay (CC50); format: cell-based, human; settings: UM-UC-3-LV (empty vector), 72 h
Experimental: as §1, §2

Sequence of HDAC8 (Q9BY41 whole entry): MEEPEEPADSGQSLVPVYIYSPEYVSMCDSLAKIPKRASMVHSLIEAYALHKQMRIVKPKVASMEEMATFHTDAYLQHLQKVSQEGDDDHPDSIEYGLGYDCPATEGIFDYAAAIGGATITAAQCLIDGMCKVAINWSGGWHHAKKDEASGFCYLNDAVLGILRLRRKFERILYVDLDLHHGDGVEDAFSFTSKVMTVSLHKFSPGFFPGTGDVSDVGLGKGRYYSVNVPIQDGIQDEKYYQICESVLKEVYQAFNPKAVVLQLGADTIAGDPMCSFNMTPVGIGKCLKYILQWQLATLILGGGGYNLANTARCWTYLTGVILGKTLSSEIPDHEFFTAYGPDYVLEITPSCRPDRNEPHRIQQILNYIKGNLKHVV
Sequence of HDAC6 (Q9UBN7 whole entry): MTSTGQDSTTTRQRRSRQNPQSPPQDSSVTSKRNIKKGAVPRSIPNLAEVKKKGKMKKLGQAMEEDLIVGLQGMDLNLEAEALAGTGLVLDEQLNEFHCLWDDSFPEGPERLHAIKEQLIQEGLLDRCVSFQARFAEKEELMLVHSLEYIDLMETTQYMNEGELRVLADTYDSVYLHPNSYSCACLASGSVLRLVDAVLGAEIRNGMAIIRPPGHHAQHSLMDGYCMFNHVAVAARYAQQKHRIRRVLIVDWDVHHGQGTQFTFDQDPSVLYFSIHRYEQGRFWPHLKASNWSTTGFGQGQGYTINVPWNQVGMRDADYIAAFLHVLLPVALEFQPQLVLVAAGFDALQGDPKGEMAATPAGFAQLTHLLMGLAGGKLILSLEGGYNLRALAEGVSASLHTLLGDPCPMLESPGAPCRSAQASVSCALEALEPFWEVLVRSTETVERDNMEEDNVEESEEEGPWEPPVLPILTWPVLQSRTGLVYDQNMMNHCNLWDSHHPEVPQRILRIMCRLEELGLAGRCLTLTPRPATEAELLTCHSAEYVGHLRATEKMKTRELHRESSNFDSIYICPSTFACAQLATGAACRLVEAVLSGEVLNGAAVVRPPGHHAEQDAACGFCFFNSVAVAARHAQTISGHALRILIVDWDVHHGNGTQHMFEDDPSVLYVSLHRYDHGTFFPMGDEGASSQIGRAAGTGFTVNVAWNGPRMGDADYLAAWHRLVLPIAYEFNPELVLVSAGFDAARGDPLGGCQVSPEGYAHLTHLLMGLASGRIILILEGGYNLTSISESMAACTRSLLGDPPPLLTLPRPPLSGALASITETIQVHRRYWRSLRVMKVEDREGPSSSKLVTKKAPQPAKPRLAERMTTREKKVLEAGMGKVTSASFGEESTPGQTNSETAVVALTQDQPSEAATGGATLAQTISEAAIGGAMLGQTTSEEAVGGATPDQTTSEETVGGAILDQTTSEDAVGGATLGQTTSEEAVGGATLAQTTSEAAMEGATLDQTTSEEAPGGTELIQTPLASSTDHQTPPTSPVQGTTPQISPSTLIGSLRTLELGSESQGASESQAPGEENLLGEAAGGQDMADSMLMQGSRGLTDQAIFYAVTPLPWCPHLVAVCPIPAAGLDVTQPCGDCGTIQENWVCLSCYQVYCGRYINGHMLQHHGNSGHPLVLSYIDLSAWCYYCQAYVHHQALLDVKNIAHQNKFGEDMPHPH
Sequence of HDAC11 (Q96DB2 whole entry): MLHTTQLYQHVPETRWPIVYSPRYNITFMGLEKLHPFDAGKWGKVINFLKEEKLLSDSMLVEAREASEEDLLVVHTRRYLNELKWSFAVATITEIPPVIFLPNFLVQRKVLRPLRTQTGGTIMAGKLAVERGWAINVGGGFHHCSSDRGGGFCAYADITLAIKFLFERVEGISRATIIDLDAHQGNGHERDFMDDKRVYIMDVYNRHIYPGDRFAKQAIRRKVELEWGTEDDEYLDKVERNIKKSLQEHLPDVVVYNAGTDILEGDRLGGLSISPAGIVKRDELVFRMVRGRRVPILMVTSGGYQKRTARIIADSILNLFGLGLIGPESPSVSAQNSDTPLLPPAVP
Sequence of HDAC10 (Q969S8 whole entry): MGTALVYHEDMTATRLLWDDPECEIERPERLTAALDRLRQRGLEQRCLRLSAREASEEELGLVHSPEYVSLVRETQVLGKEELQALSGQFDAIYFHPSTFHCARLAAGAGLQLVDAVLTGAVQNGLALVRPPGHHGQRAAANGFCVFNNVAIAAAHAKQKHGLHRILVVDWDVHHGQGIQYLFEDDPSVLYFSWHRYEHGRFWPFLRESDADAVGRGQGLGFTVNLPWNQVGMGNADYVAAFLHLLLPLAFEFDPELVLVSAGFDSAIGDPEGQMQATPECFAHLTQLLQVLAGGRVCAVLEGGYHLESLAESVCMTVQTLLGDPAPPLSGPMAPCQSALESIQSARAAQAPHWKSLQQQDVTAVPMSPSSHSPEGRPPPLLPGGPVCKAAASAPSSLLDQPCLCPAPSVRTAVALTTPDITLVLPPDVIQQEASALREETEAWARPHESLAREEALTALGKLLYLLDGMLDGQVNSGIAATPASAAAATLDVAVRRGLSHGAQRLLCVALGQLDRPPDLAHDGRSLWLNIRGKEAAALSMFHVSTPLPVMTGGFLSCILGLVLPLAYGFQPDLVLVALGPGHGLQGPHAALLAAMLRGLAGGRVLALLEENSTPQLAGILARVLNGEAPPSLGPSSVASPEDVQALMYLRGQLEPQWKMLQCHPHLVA

## Cc1cc(C)cc(C(=O)NOCCCCCC(=O)NO)c1 [19i]
HDAC11
  IC50: 109000 nM
[1]
  PARP cleavage: augmented
HDAC10
  IC50: 491 nM
HDAC6
  IC50: 32 nM
UC cells
  clonogenic potential: impaired the clonogenic potential
UCCs
  global acetylation of histones H3 and H4: enhanced
UCCs; SAHA 2.5 μM
  acetylation of α-tubulin: strongly induced
[2]
  CC50: < 1000 nM
HDAC8
  IC50: 2840 nM
VM-CUB1-LV
  CC50: 950 nM
VM-CUB1-HDAC4
  CC50: 630 nM
UM-UC-3-HDAC4
  CC50: 740 nM
UM-UC-3-LV
  CC50: 790 nM
